Values joined by “and” are separate entries in the source; they are usually repeats but may differ in a detail not shown here. Equal entries are not always repeated.
Assays:
[1] = target: T1, PSMA protein isolated from prostate cancer cell LNCaP (Homo sapiens, UniProt Q04609); test: PSMA or GCPII enzyme inhibition (NAALADase) assay, Amplex Glutamate kit; format: biochemical; conditions: NAAG 30 nM substrate, 60 min, fluorescence
T1 construct: membrane portion of PSMA enzyme was extracted from PSMA+ LNCaP cell line; endogenous in cells; host or cells: LNCaP (membrane pellet after 100,000 x g ultracentrifugation)
T1 sequence (Q04609 whole entry): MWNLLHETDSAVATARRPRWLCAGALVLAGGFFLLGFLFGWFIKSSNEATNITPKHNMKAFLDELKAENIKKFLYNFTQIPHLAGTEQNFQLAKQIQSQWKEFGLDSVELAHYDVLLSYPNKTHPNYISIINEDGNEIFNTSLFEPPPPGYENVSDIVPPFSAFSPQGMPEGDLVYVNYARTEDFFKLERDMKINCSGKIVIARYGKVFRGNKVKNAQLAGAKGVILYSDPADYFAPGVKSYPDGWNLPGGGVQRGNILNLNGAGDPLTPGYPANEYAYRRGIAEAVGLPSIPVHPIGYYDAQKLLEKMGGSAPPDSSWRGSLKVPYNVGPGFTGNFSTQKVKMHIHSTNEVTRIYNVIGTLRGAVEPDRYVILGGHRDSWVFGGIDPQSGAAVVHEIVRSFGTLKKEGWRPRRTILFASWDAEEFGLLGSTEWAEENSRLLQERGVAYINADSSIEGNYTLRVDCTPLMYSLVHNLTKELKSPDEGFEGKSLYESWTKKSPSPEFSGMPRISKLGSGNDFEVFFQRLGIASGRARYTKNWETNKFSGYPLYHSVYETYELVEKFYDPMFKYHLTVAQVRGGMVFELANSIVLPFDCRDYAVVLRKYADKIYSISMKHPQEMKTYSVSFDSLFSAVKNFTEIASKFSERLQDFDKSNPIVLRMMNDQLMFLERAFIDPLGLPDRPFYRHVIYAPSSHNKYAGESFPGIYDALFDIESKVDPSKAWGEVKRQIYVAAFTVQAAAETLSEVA
Procedure: Briefly, PSMA enzyme was extracted from membrane lysates of LNCaP cell lines after separating the soluble cytosolic PSM′ portion by ultracentrifugation at 100,000×g. The PSMA enzyme (8.3027 ng, 100 μL) free from cytosolic portion was incubated with various concentrations of the AAPT inhibitor (0.1 nM to 1000 nM, 100 μL) in the presence of NAAG (30 nM, 50 μL) for 60 min in a 24-well plate. The amount of glutamic acid released by the hydrolysis of NAAG during competitive inhibition by AAPT inhibitor was measured by incubating each well with a working solution of Amplex Red reagent (100 uM, 50 μL) for 30 min at 37° C. The fluorescence emission from each well, proportional to the amount of released glutamic acid, was measured using Synergy H1 multimode plate reader (BioTek Instruments, Inc., Winooski, VT, USA) at an excitation and emission wavelength of 530 nm and 590 nm respectively.
In the first trial, the enzyme inhibition analysis was performed by incubating PSMA enzyme with increasing concentrations of inhibitor, AAPT.
Fluorescent-based enzyme inhibition assay was performed to determine the IC50 value of the newly synthesized GCPII inhibitors 1-3 (AAPT ligands). Amplex Glutamate kit was purchased from Invitrogen, and a working solution of Amplex Red reagent (5 mL, 100 μM) was prepared. Meanwhile, membrane portion of PSMA enzyme was extracted from PSMA+ LNCaP cell line by following a reported protocol. Briefly LNCaP cells (1 million) were harvested in HEPES buffer (1 mL) and lyzed twice using probe sonicator for 30 s. […] The amount of glutamic acid released by the hydrolysis of NAAG was measured by incubating a working solution of Amplex Red reagent (50 μL, 100 μM) for 30 min at 37° C. The fluorescence emission after the oxidation of Amplex Red reagent was measured by using Synergy H1 multimode plate reader (BioTek Instruments, Inc., Winooski, VT, USA). The excitation wavelength was fixed at 530 nm, and the fluorescence emission is measured at 590 nm. […]

[2] = target: T2, PSMA protein (Homo sapiens, UniProt Q04609); test: Binding affinity of 99mTc AAPT-PCa bioconjugates in PSMA+ LNCaP cells, gamma counter; conditions: 99mTc bioconjugate, counts per minute, 1 h incubation, read-out: dissociation constant (KD), binding affinity
T2 construct: endogenous in cells; host or cells: LNCaP
T2 sequence (Q04609 whole entry): as above
Procedure: In an embodiment, FIG. 24, evaluation of binding affinity of AAPT-PCa Bioconjugate 8a in PSMA+ LNCaP cells was done, using gamma scintillation counter. The binding affinity constant of PSMA targeted conjugate, 8a, to target PSMA was determined in vitro in LNCaP cells by measuring the counts per minute for different concentrations of the ^99mTc bioconjugate 8a in triplicate.
A solution of stannous chloride dihydrate (0.80 mg, 0.003 mmol) in 0.2 M hydrochloric acid (0.8 mL) was added to a solution of sodium-α-D-glucoheptonate dihydrate (800 mg, 2.815 mmol) in nitrogen-purged water. Chelating bioconjugate 8a-g (0.001 mmol) was added to the reaction mixture while continuous nitrogen purging. The pH of the solution was adjusted to 6.8 using 0.1 N sodium hydroxide solution. After the pH adjustment nitrogen-purged water was added to achieve a total volume of 10 mL. The solution was then dispensed in 5 mL vials (1 mL/vial) under nitrogen atmosphere and lyophilized for 48 h. […]
The cells were then gently dissociated with trypsin and centrifuge to obtain a pellet. […] The cell pellet free of unbound bioconjugate was resuspended in the ice-cold FACS buffer to evaluate cell-bound radioactivity using a gamma counter. The dissociation constant Kd was calculated using graph pad prism 7.04.

[3] = target: T2, PSMA protein; test: Binding affinity of fluorescent conjugates in LNCaP cells by flow cytometry (FACS); conditions: mean fluorescence intensity, triplicate, read-out: dissociation constant (KD)
Procedure: In an embodiment in FIG. 15, Evaluation of binding affinity of PSMA targeted fluorescent conjugate 22, AAPT-C17201, using flow cytometry analysis. The binding affinity constant of PSMA targeted fluorescent conjugate, AAPT-C17201, to target PSMA was determined in vitro in LNCaP cells by measuring the mean fluorescence intensity per cell for different concentrations of the fluorescent conjugate in triplicate using Fluorescence Activated Cell Sorting (FACS) study.

Kd [3] | SMILES | also measured
– | O=C(O)CC[C@H](NCC(=O)N[C@@H](CCC(=O)O)C(=O)O)C(=O)O [Ligand 1] | IC50 [1]: 38.5 nM and 95 nM and 78 nM
– | NC(CNC(=O)[C@H](Cc1cccc2ccccc12)NC(=O)[C@H](Cc1cccc2ccccc12)NC(=O)CCCCCCCNC(=O)CCC(NC(=O)CNC(CCC(=O)O)C(=O)O)C(=O)O)C(=O)N[C@@H](CC(=O)O)C(=O)N[C@@H](CS)C(=O)O (stereo partly shown) [Ligand 8g] | Kd [2]: 42 nM
85 nM | CCN(CC)c1ccc2c(-c3ccccc3C(=O)NCCCC[C@H](NC(=O)CCCCCCCNC(=O)[C@H](Cc3ccccc3)NC(=O)[C@H](Cc3ccccc3)NC(=O)CCCCCCCNC(=O)CC[C@H](NC(=O)CN[C@@H](CCC(=O)O)C(=O)O)C(=O)O)C(=O)N[C@@H](CC(=O)O)C(=O)NCCN)c3ccc(=[N+](CC)CC)cc-3oc2c1 [Ligand 22] | –
130 nM | CCN(CC)c1ccc2c(-c3ccccc3C(=O)NCCCC[C@H](NC(=O)CCCCCCCNC(=O)c3ccc(CNC(=O)[C@H](Cc4ccccc4)NC(=O)[C@H](Cc4ccccc4)NC(=O)CCCCCCCNC(=O)CC[C@H](NC(=O)CN[C@@H](CCC(=O)O)C(=O)O)C(=O)O)cc3)C(=O)N[C@@H](CC(=O)O)C(=O)NCCN)c3ccc(=[N+](CC)CC)cc-3oc2c1 [Ligand 25] | –
